“And” between values parts separate entries of the source, which are not always exact repeats. Equal values may be shown once. Read-outs that look alike come from different tables or passages of the source.
Tests used:
[1] = Viability assay, human primary hepatocytes, RT-glo, 48 h; format: cell-based; conditions: human, primary human hepatocytes, sheet Fig1 panel C (primary human hepatocytes), 48 h, replicates, read-out: viability, normalized to DMSO-treated controls
Protocol: (§1) To study the viability of the liver cells, 5 × 10^3 HepG2 (ATCC®) or human primary cells (ThermoFisher Scientific, USA) were seeded in 100 μL of DMEM media (Gibco; Thermo Fisher Scientific, USA) supplemented with fetal bovine serum (FBS)- in a 96-well plate. […] The experiments were performed in triplicates.

[2] = system: human primary hepatocytes; assay: as above; format: cell-based; conditions: 48 h
Protocol: as §1

[3] = Viability assay, HepG2 cells, MTT test, 48 h; format: cell-based, human; conditions: human, HepG2 cells, sheet Fig1 panel B (HepG2), 48 h, replicates, read-out: viability, normalized to DMSO-treated controls
Protocol: as §1

HepG2 = assay: Viability assay, HepG2 cells, MTT test, 48 h; format: cell-based, human; conditions: for viability, normalized to DMSO-treated controls: sheet Fig1 panel B (HepG2), replicates, in % (unit assumed)
Protocol: as §1

[4] = Stability in microsomes, mouse; format: in vitro ADME; conditions: for average DEG [%]: mouse microsomes, with cofactors
Protocol: The final incubation volume was 500 μL. Two control compounds (verapamil and donepezil) were included for each microsomal species, along with the appropriate vehicle control. The reactions were terminated by transferring 50 μL of incubate to 100 μL methanol containing an internal standard (metoprolol) at appropriate time points (0, 10, 20, 40, 60, and 120 min for the test compound and 0, 5, 10, 20, 40, and 60 min for the control compounds). The termination plates were centrifuged at 4000 x g at 4°C for 30 min to precipitate the protein. The supernatants were then collected for analysis, and LC-MS/MS was used for detection purposes. The system consisted of an Acquity™ Binary Solvent Manager, Acquity™ 4-position heated column manager, 2777 Ultra High Pressure Autosampler, and a Xevo-TQ MS triple quadrupole mass spectrometer (Waters Ltd., Herts, UK). This process was carried out twice.

[5] = Pharmacokinetics in mice, serum and liver concentrations; conditions: for liver conc / serum conc: mouse, 3 mg/kg p.o., individual animals
Protocol: The mice were separated into four groups of 32 mice per group. […] At time point t = 0, animals received a single dose of the compounds orally. […] Four hours after drug administration, the animals received standard chow. […] After solubilization in extraction buffer, the solutions were shaken for 1 min and then centrifuged for 4 min (4000 x g).

in vivo = conditions: both, Wistar Han, rat, 600 mg/kg, 14 days
BSEP = BSEP (Homo sapiens, UniProt O95342); assay: Vesicular transport inhibition assay, BSEP
Sequence of BSEP (O95342 whole entry, the tested form may be a part): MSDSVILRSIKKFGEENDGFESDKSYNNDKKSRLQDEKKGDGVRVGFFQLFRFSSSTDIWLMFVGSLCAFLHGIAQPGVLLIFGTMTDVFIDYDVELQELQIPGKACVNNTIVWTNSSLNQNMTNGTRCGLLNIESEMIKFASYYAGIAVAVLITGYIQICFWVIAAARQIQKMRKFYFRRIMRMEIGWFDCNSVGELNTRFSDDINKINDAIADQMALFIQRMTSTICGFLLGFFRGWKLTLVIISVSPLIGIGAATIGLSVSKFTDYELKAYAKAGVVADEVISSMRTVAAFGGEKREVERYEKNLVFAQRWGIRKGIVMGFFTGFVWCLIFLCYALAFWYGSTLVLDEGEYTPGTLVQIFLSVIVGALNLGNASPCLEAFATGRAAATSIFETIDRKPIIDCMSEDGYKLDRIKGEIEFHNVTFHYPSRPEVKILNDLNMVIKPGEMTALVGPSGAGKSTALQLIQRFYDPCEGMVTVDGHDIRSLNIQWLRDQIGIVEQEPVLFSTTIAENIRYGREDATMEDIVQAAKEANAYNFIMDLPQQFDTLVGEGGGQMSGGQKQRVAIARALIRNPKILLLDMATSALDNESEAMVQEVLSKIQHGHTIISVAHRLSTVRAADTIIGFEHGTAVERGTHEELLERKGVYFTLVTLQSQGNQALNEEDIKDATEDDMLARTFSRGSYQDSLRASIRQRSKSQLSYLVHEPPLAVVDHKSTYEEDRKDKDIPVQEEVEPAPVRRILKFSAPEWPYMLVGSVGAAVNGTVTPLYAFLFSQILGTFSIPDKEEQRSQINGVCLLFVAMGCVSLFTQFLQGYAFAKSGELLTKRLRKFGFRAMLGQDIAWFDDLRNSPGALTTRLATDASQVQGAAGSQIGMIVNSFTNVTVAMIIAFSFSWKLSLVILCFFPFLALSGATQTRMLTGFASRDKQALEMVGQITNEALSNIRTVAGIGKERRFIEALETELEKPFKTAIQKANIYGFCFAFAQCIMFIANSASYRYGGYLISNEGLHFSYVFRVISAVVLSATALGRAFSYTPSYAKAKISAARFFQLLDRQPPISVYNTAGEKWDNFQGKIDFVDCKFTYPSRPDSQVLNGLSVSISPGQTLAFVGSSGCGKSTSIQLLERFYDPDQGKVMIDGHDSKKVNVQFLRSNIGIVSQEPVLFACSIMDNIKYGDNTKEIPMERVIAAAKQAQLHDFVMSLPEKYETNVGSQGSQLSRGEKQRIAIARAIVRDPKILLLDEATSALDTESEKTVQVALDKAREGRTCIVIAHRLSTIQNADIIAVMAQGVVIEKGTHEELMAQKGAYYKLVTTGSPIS
Protocol: (§2) In the vesicular transport inhibition assay (for BSEP, MRP) compounds were incubated with membrane vesicle preparations and the probe substrate. Incubations were carried out in the presence of 4 mM ATP or AMP to distinguish between transporter-mediated uptake and passive diffusion into the vesicles. For MRP2 and MRP3, reactions were carried out in the presence of 2 mM glutathione. Compounds were added to the reaction mixture in 0.75 μL of solvent (1% of the final incubation volume). […] Reactions were initiated by the addition of 25 μL of 12 mM MgATP (or 12 mM AMP in assay buffer as a background control) and preincubated separately. Reactions were quenched by the addition of 200 μL of ice-cold washing buffer and immediate filtration via glass fiber filters mounted on a 96-well plate (filter plate). The filters were washed (5 × 200 μL of ice-cold washing buffer), dried, and the amount of substrate inside the filtered vesicles was determined by liquid scintillation counting.

MRP2 = MRP2 (Homo sapiens, UniProt Q92887); assay: Vesicular transport inhibition assay, MRP2; conditions: for Accumulation (counts per minute; CPM) with AMP / Accumulation (counts per minute; CPM) with ATP: MRP2;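 further: membrane vesicles with probe substrate plus 2 mM glutathione, incubated with 4 mM ATP or AMP (AMP as background control), vesicle-retained substrate measured by liquid scintillation counting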;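 on Accumulation (counts per minute; CPM) with AMP: ATP 4 mM vs AMP background separates transporter uptake from diffusion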;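 on Accumulation (counts per minute; CPM) with ATP: ATP 4 mM vs AMP background separates transporter uptake from diffusion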
Sequence of MRP2 (Q92887 whole entry, the tested form may be a part): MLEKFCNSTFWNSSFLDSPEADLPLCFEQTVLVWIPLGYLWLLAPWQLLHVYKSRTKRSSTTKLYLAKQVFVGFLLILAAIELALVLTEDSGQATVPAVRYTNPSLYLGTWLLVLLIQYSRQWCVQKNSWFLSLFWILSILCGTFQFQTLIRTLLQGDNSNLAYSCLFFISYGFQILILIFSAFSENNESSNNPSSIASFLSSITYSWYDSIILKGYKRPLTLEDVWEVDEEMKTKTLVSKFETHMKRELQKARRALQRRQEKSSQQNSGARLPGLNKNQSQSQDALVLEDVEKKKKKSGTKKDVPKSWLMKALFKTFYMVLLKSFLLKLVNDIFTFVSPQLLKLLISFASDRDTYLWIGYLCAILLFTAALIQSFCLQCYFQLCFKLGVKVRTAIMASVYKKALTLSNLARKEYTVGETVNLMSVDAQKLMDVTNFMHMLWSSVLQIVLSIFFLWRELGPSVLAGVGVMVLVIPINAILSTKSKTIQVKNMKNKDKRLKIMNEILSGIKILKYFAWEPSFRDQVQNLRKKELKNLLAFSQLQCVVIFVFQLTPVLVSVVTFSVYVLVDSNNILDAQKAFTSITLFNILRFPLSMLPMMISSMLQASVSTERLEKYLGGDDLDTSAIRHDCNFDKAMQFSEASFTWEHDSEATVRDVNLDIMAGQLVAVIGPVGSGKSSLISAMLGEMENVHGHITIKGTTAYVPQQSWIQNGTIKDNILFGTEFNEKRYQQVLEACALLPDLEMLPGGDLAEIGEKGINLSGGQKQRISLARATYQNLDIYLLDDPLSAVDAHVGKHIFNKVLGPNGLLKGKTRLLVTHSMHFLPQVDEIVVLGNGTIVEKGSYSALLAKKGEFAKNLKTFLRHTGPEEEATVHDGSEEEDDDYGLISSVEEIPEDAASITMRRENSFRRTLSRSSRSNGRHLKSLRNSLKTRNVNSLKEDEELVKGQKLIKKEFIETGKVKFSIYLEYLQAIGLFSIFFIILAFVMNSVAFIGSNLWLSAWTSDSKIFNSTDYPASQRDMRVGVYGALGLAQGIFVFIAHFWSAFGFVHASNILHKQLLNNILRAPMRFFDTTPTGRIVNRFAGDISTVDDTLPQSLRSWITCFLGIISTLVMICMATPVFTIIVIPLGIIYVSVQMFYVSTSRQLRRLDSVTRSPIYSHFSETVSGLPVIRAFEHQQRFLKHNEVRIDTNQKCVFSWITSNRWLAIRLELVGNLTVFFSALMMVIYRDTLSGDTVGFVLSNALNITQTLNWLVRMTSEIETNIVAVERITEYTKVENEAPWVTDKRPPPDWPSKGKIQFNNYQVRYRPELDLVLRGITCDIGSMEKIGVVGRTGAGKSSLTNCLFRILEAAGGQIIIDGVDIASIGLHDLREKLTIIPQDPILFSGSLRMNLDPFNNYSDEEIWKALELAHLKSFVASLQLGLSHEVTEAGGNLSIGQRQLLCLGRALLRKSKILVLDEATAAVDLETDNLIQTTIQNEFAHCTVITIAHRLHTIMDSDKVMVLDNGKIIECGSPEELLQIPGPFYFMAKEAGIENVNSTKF
Protocol: as §2

[6] = Single-dose pharmacokinetics in rats (p.o. and i.v.); format: in vivo, rat; design: plasma conc: unit not given here; conditions: for plasma conc: single animals; for AUC: read-out: AUC
[7] = Mouse (CD) microsomes, mean n = 2
[8] = rat, plasma, iv, 3 mg/kg, rats, 3 mg/kg i.v.
[9] = rat, plasma, po, 3 mg/kg, rats, 3 mg/kg p.o.

Work on `Cc1cc(OCCCS(C)(=O)=O)cc(C)c1-c1cccc(COc2ccc3c(c2)OC[C@H]3CC(=O)O)c1` [TAK-875, fasiglifam, reference compound] yielded a viability at 48 h, 0.78 µM ([1]; 0.78 uM) of 117%, a viability at 48 h, 3.125 µM ([1]; 3.125 uM) of 113% and a viability at 48 h, 6.25 µM ([1]; 6.25 uM) of 89.7%. It also gave a viability at 48 h, 25 µM ([1]; 25 uM) of 64.7%, a viability at 48 h, 50 µM ([1]; 50 uM) of 34.1% and a viability at 48 h, 100 µM ([1]; 100 uM) of 4.16%. The viability ([2]; human primary hepatocytes, concentrations up to 10 μM) was “Neither compound exhibited altered viability”, the effect on growth ([2]; primary cells, 100 μM) was “abolished the growth” and the viability at 48 h, 25 µM ([3]; 25 uM) was 67.5%. For the same compound, the viability at 48 h, 50 µM ([3]; 50 uM) was 61.2%, the effect on growth (HepG2; HepG2, 48 h, 100 μM) was “abolished the growth” and the viability (HepG2; HepG2, 48 h, concentrations up to 10 μM) was “Neither compound exhibited altered viability”. The IC50 (HepG2; hepatocytes (HepG2 and human primary cells), 48 h, read-out: IC50 in the viability study) was ~50 µM, the “viability, normalized to DMSO-treated controls” value (“viability, normalized” below) (HepG2; 48 h, 0.78 uM) was 126.396 and the “viability, normalized” value (HepG2; 48 h, 3.125 uM) was 63.2509. The “viability, normalized” value (HepG2; 48 h, 6.25 uM) was 66.4311, the “viability, normalized” value (HepG2; 48 h, 25 uM) was 47.9859 and 54.8143 and the “viability, normalized” value (HepG2; 48 h, 50 uM) was 48.6926 and 45.8734. For the same compound, the “viability, normalized” value (HepG2; 48 h, 100 uM) was 25.4386 and 23.9576 and 12.1733, the half-life at 3 μM [4, 7] was 5.72 h and the microsomal CLint at 3 μM [4, 7] was 4 µL/min/mg. For the same compound, the “average DEG [%]” value ([4]; 0 min) was 100.0%, the “average DEG [%]” value ([4]; 20 min) was 83.6% and the “average DEG [%]” value ([4]; 40 min) was 92.9%. For the same compound, the “average DEG [%]” value ([4]; 60 min) was 79.0%, the “distribution between liver and serum” value ([5]; mice, single oral dose 3 mg/kg, 15 min to 24 h) was “tended to penetrate the liver more than serum” and the liver conc ([5]; 0.5 h, 3 mg/kg) was 12066 and 9386 and 11708 and 12618. For the same compound, the serum conc ([5]; 0.5 h, 3 mg/kg) was 993.3 and 360.8 and 908.6 and 651.9, the liver conc ([5]; 1 h, 3 mg/kg) was 10596 and 9326 and 7020 and 7420 and the serum conc ([5]; 1 h, 3 mg/kg) was 1072.6 and 672.7 and 566 and 819. The liver conc ([5]; 2 h, 3 mg/kg) was 6580 and 5322 and 5300 and 4227.4, the liver conc ([5]; 4 h, 3 mg/kg) was 3742.6 and 2509.2 and 2176.6 and 3530.4 and the liver conc ([5]; 7 h, 3 mg/kg) was 1827.82 and 413.84 and 1236.2 and 1172.8. The serum conc ([5]; 7 h, 3 mg/kg) was 0 and 11.2 and 32.3 and 10, the liver conc ([5]; 12 h, 3 mg/kg) was 594.8 and 321.278 and 55.624 and 442.92 and the serum conc ([5]; 12 h, 3 mg/kg) was 12 and 0 (2×) and 18.6. The serum conc ([5]; 24 h) was 0, the liver conc ([5]; 24 h, 3 mg/kg) was 449.28 and 67.18 and 37.77 and 209.86 and the “exposure exceeding the CPL207280 exposure” value (in vivo) was 200%. The “Accumulation (counts per minute; CPM) HEK293-BSEP” value (BSEP; conc 0.41 µM) was 11727 CPM and 12245 CPM and 11981 CPM, the “Accumulation (counts per minute; CPM) HEK293-MOCK” value (BSEP; conc 0.41 µM) was 463 CPM and 375 CPM and 363 CPM and the “Accumulation (counts per minute; CPM) HEK293-BSEP” value (BSEP; conc 1.23 µM) was 11757 CPM and 12666 CPM and 12491 CPM. The “Accumulation (counts per minute; CPM) HEK293-MOCK” value (BSEP; conc 1.23 µM) was 465 CPM and 378 CPM and 379 CPM, the “Accumulation (counts per minute; CPM) HEK293-BSEP” value (BSEP; conc 3.70 µM) was 11540 CPM and 12190 CPM and 12485 CPM and the “Accumulation (counts per minute; CPM) HEK293-MOCK” value (BSEP; conc 3.70 µM) was 406 CPM and 443 CPM and 391 CPM. For the same compound, the “Accumulation (counts per minute; CPM) HEK293-BSEP” value (BSEP; conc 11.11 µM) was 11930 CPM and 12790 CPM and 12439 CPM, the “Accumulation (counts per minute; CPM) HEK293-MOCK” value (BSEP; conc 11.11 µM) was 450 CPM and 398 CPM and 437 CPM and the “Accumulation (counts per minute; CPM) HEK293-BSEP” value (BSEP; conc 33.33 µM) was 10294 CPM and 11069 CPM and 10674 CPM. The “Accumulation (counts per minute; CPM) HEK293-MOCK” value (BSEP; conc 33.33 µM) was 418 CPM and 356 CPM and 425 CPM, the “Accumulation (counts per minute; CPM) HEK293-BSEP” value (BSEP; conc 100 µM) was 6186 CPM and 6483 CPM and 6458 CPM and the “Accumulation (counts per minute; CPM) HEK293-MOCK” value (BSEP; conc 100 µM) was 375 CPM and 361 CPM and 372 CPM. For the same compound, the IC50 (MRP2) was 48.1 µM, the “Accumulation (counts per minute; CPM) with AMP” value (MRP2; conc 0.07 µM) was 234 CPM and 221 CPM and the “Accumulation (counts per minute; CPM) with ATP” value (MRP2; conc 0.07 µM) was 3160 CPM and 3355 CPM. For the same compound, the “Accumulation (counts per minute; CPM) with AMP” value (MRP2; conc 0.21 µM) was 218 CPM and 217 CPM, the “Accumulation (counts per minute; CPM) with ATP” value (MRP2; conc 0.21 µM) was 3318 CPM and 3579 CPM and the “Accumulation (counts per minute; CPM) with AMP” value (MRP2; conc 0.62 µM) was 249 CPM and 186 CPM. For the same compound, the “Accumulation (counts per minute; CPM) with ATP” value (MRP2; conc 0.62 µM) was 3453 CPM and 3166 CPM, the “Accumulation (counts per minute; CPM) with AMP” value (MRP2; conc 16.67 µM) was 211 CPM and 200 CPM and the “Accumulation (counts per minute; CPM) with ATP” value (MRP2; conc 16.67 µM) was 2989 CPM and 3430 CPM. The “Accumulation (counts per minute; CPM) with AMP” value (MRP2; conc 50.00 µM) was 220 CPM and 191 CPM, the “Accumulation (counts per minute; CPM) with ATP” value (MRP2; conc 50.00 µM) was 1700 CPM and 1670 CPM and the plasma conc ([6]; rat, 3 mg/kg i.v., 0.08 h, 3 mg/kg) was 14090 and 15902 and 15227 and 5072. For the same compound, the plasma conc ([6]; rat, 3 mg/kg i.v., 0.5 h, 3 mg/kg) was 14558 and 12270 and 9258 and 3810, the plasma conc ([6]; rat, 3 mg/kg i.v., 1 h, 3 mg/kg) was 8089 and 7692 and 11373 and 4600 and the plasma conc ([6]; rat, 3 mg/kg i.v., 2 h, 3 mg/kg) was 5223 and 7517 and 9423. For the same compound, the plasma conc ([6]; rat, 3 mg/kg i.v., 4 h, 3 mg/kg) was 3618 and 4301 and 3765, the plasma conc ([6]; rat, 3 mg/kg i.v., 7 h, 3 mg/kg) was 1974 and 2103 and 1928 and 4512 and the plasma conc ([6]; rat, 3 mg/kg i.v., 12 h, 3 mg/kg) was 1056 and 769 and 1435. For the same compound, the plasma conc ([6]; rat, 3 mg/kg p.o., 0.5 h, 3 mg/kg) was 1176 and 692 and 854 and 1110, the plasma conc ([6]; rat, 3 mg/kg p.o., 1 h, 3 mg/kg) was 1699 and 1467 and 1460 and 1557 and the plasma conc ([6]; rat, 3 mg/kg p.o., 2 h, 3 mg/kg) was 1890 and 1694 and 1808 and 1814. For the same compound, the plasma conc ([6]; rat, 3 mg/kg p.o., 4 h, 3 mg/kg) was 1443 and 1502 and 1610 and 1643, the plasma conc ([6]; rat, 3 mg/kg p.o., 8 h, 3 mg/kg) was 681 and 636 and 614 and 960 and 463 and the plasma conc ([6]; rat, 3 mg/kg p.o., 24 h) was 0. The Tmax [6, 8] was 0.083 h, the Cmax ([6]; rat, plasma, iv, 3 mg/kg, rats, 3 mg/kg i.v., n = 5, read-out: Cmax) was 15100 ± 916 ng/mL and the AUC [6, 8] was 45200 ± 4680 ng·h/mL. The bioavailability ([6]; rat, plasma, oral, rats, 3 mg/kg p.o. vs i.v., read-out: F (bioavailability)) was 38%, the Tmax [6, 9] was 2 h and the AUC [6, 9] was 15800 ± 1510 ng·h/mL. For the same compound, the Vd ([6]; rat, plasma, rats, 3 mg/kg) was 0.25 ± 0.01 L/kg, the k el ([6]; rat, plasma, rats, 3 mg/kg) was 6.67e-05 s⁻¹ and the “greater distribution volume (Vd) than CPL207280” value ([6]; rats, 3 mg/kg) was 20%.
